Experiments:
[1] = test system: normal human epidermal melanocytes (NHEM); assay: Melanogenesis assay with human primary cells; assay type: cell-based; conditions: 10 days incubation, DMSO control = 100, concentration not given
Procedure: An ampoule of normal human epidermal melanocytes (NHEM, Promocell) is thawed and divided into further bottles depending on the number of their duplicates. After 2 to 3 weeks, between 750,000 and one million cells are transferred into T25 bottles with 5 ml of full medium. After 24 hours, the medium is removed and replaced by corresponding substance dilutions or controls. The overall duration of the incubation of the various test substances on the cells is 10 days. During these 10 days, the substance dilutions or controls are replaced every 2-3 days. After 10 days, the melanocytes are harvested. 500 μl of trypsin/EDTA is added to the cells and immediately removed again by suction. The cells are subsequently taken up in medium, counted and centrifuged off. The supernatant is removed, the pellet is washed with DPBS and centrifuged again. A photo of this pellet is taken. The pellet is then taken up in 1 ml of NaOH (1 M) and incubated in a shaker at 80° C. for one hour. The solution, cooled to room temperature, is pipetted into a 96-well plate (4×200 μl), and the absorption at 405 nm is measured. The values measured are subsequently plotted in percent against the control.

[2] = test system: B16V mouse melanoma cells; assay: B16V mouse melanoma cell test, melanin content after alpha-MSH stimulation; assay type: cell-based; conditions: DMSO blank = 100, DMSO + alpha-MSH = 235
Procedure: B16V mouse melanoma cells (manufacturer: DSMZ; Article No.: ACC370) are transferred into RPMI medium (Invitrogen, Article No.: 31870), to which 10% of FBS (foetal bovine serum; Invitrogen, Article No.: 10499044), 2 mM L-glutamine (Invitrogen, Article No: 25030) and 1 mM sodium pyruvate (Invitrogen, Article No.: 11360) had additionally been added, and incubated at 37° C. and 5% CO2 for 72 h. The medium is separated off, and the cells are washed once with 10 ml of DPBS (Dulbecco's phosphate-buffered salines; Invitrogen, Article No.: 14190), and the medium is subsequently removed by suction. 1 ml of HyQtase cell detachment solution (Hyclone, Article No.: SV30030.01) is added to the cells. The bottle is swirled a number of times, and the HyQtase cell detachment solution is subsequently removed by suction. The cells are then incubated in the incubator at 37° C. and 5% CO2 for 5 min. The cells are taken up in the modified RPMI medium (see above), and the cell count is determined. To this end, the cells are stained with Trypan Blue and counted in a Neubauer counting chamber. The cells are subsequently sown out again in the modified RPMI medium (see above) in a defined cell count of 80,000 cells per well (6-well clear plate, TCT, PS (Nunc)).
The cells are incubated at 37° C. and 5% CO2 for 24 h, the medium is then removed. 1980 μl of the substance dilution are subsequently added. […]
After the final incubation period, the medium is removed by suction, and the cells are washed with 1000 μl of DPBS (Invitrogen, Article No.: 14190). […] The cell count is subsequently determined. To this end, the cells are stained with Trypan Blue and counted in a Neubauer counting chamber. […] Four times 200 μl per cup (as quadruple determination) are subsequently pipetted into a 96-well plate (VWR, Article No.: 4100636981), and the absorption at a wavelength of 405 nm is determined (Safire, Tecan). The content of melanin can be determined in this way by means of a calibration line.

Row | SMILES | Relative melanin content in % [1] [%] | Relative melanin content in % ([2]; 0.05 mM + alpha-MSH (10^-8 M)) [%] | Relative melanin content in % ([2]; 0.1 mM + alpha-MSH (10^-8 M)) [%] | Relative melanin content in % ([2]; 1 mM + alpha-MSH (10^-8 M)) [%]
1 | O=C(c1ccco1)C(O)c1ccco1 (stereo not shown) [2,2′-Furoin, 2,2′-furoin] | 72.9 | 88.0 | 63.1 | –
2 | O=c1cc(CO)occ1O [Kojic acid, reference compound] | – | – | – | 96

Reference: patent publication US8906351B2, “2,2′-furoin derivatives and use thereof to light skin” (Merck Patent GmbH, priority 2010, dated 2014)
